Results reported in the NIST ThermoML archive (doi:10.1016/j.jct.2014.07.018).
Numbers after ± are expanded uncertainties.

How the values were obtained:
[1] = for molar entropy: 101.33 kPa, Vacuum adiabatic calorimetry
[2] = Molar enthalpy of transition or fusion; details: Crystal; Adiabatic calorimetry

CCCCn1cc[n+](C)c1.[I-] [1-butyl-3-methylimidazolium iodide]
[1]
Details | Glass transition temperature [°C] | Triple point temperature [K] | molar entropy [J/K/mol]
0 K, Glass | – | – | 15.2 ± 3.2
5 K, Crystal | – | – | 0.279 ± 0.018
5 K, Glass | – | – | 15.7 ± 3.2
10 K, Crystal | – | – | 2.27 ± 0.07
10 K, Glass | – | – | 18.7 ± 3.2
15 K, Crystal | – | – | 6.48 ± 0.15
15 K, Glass | – | – | 24 ± 3.2
20 K, Crystal | – | – | 12.19 ± 0.21
20 K, Glass | – | – | 30.7 ± 3
25 K, Crystal | – | – | 18.74 ± 0.25
25 K, Glass | – | – | 38.1 ± 3
30 K, Crystal | – | – | 25.76 ± 0.29
30 K, Glass | – | – | 46 ± 3
35 K, Crystal | – | – | 32.98 ± 0.34
35 K, Glass | – | – | 54.1 ± 3
40 K, Crystal | – | – | 40.24 ± 0.38
40 K, Glass | – | – | 62.1 ± 3
45 K, Crystal | – | – | 47.47 ± 0.43
45 K, Glass | – | – | 70.1 ± 2.9
50 K, Crystal | – | – | 54.62 ± 0.48
50 K, Glass | – | – | 77.9 ± 2.9
60 K, Crystal | – | – | 68.59 ± 0.56
60 K, Glass | – | – | 93.1 ± 2.9
70 K, Crystal | – | – | 82.02 ± 0.65
70 K, Glass | – | – | 107.7 ± 2.7
80 K, Crystal | – | – | 94.91 ± 0.73
80 K, Glass | – | – | 121.6 ± 2.7
90 K, Crystal | – | – | 107.3 ± 0.8
90 K, Glass | – | – | 135 ± 2.7
100 K, Crystal | – | – | 119.2 ± 1
100 K, Glass | – | – | 147.9 ± 2.7
110 K, Crystal | – | – | 130.6 ± 1
110 K, Glass | – | – | 160.2 ± 2.6
120 K, Crystal | – | – | 141.7 ± 1
120 K, Glass | – | – | 172 ± 2.6
130 K, Crystal | – | – | 152.3 ± 1.1
130 K, Glass | – | – | 183.5 ± 2.6
140 K, Crystal | – | – | 162.6 ± 1.1
140 K, Glass | – | – | 194.6 ± 2.6
150 K, Crystal | – | – | 172.6 ± 1.3
150 K, Glass | – | – | 205.3 ± 2.6
160 K, Crystal | – | – | 182.3 ± 1.3
160 K, Glass | – | – | 215.8 ± 2.4
170 K, Crystal | – | – | 191.8 ± 1.3
170 K, Glass | – | – | 226.1 ± 2.4
180 K, Crystal | – | – | 201.1 ± 1.4
180 K, Glass | – | – | 236.1 ± 2.4
190 K, Crystal | – | – | 210.2 ± 1.4
190 K, Glass | – | – | 246 ± 2.4
200 K, Crystal | – | – | 219.2 ± 1.6
200 K, Glass | – | – | 255.8 ± 2.4
210 K, Crystal | – | – | 228.1 ± 1.6
210 K, Liquid | – | – | 266.8 ± 2.5
220 K, Crystal | – | – | 236.8 ± 1.6
220 K, Liquid | – | – | 280.1 ± 2.5
230 K, Crystal | – | – | 245.5 ± 1.7
230 K, Liquid | – | – | 292.9 ± 2.5
240 K, Crystal | – | – | 254.1 ± 1.7
240 K, Liquid | – | – | 305.3 ± 2.5
250 K, Crystal | – | – | 262.7 ± 1.7
250 K, Liquid | – | – | 317.3 ± 2.3
260 K, Crystal | – | – | 271.2 ± 1.9
260 K, Liquid | – | – | 328.9 ± 2.3
270 K, Crystal | – | – | 279.8 ± 1.9
270 K, Liquid | – | – | 340.1 ± 2.3
280 K, Crystal | – | – | 288.5 ± 1.9
280 K, Liquid | – | – | 351.1 ± 2.3
290 K, Crystal | – | – | 297.2 ± 2
290 K, Liquid | – | – | 361.9 ± 2.3
291.92 K, Crystal | – | – | 298.8 ± 2
291.92 K, Liquid | – | – | 363.9 ± 2.3
298.15 K, Liquid | – | – | 370.4 ± 2.5
300 K, Liquid | – | – | 372.3 ± 2.5
310 K, Liquid | – | – | 382.6 ± 2.5
320 K, Liquid | – | – | 392.6 ± 2.6
330 K, Liquid | – | – | 402.4 ± 2.6
340 K, Liquid | – | – | 412.1 ± 2.6
350 K, Liquid | – | – | 421.5 ± 2.8
360 K, Liquid | – | – | 430.9 ± 2.8
370 K, Liquid | – | – | 440 ± 2.8
Crystal, Adiabatic calorimetry | – | 291.92 ± 0.04 | –
Glass, Adiabatic calorimetry | -66 ± 1 | – | –

Details | Molar enthalpy of transition or fusion [kcal/mol]
[2] | 4.539 ± 0.0191
